Measurements: ChEMBL document CHEMBL6103608, “Emerging RAS Inhibitors: Heterocyclic and Spirocyclic Compounds in Cancer Therapeutics” (ACS Med Chem Lett, 2025)

Test: Inhibition of NRAS G12D mutant (unknown origin) expressed in human THP-1 cells assessed as reduction in ERK phosphorylation incubated for 2 hrs by AlphaLISA SureFire Ultra assay
Type: cell-based
Details: THP-1, 2 h

SMILES: C[C@@H]1OC2=NC(c3cc(N)cc(F)c3OC(F)(F)F)=C(F)C3C(Cl)=C(CCN(C)C)N=C(C23)N2C[C@H]3CC[C@H](N3)[C@@H]12 (stereo partly specified)
- IC50: 803 pM
